This note sets out measurements from patent US20090042725A1, “Fungicidal Mixtures Based on 3,5-Disubstituted N-Biphenyl-Pyrazolcarboxamides” (BASF Aktiengesellschaft, priority 2005, published 2009).

Series [1] has as its system Puccinia recondite. Put plainly: Protective activity against Puccinia recondite on wheat (brown rust of wheat). Format: in vivo. The following applies: wheat seedlings cultivar Kanzler, sprayed 1 day before inoculation, efficacy in % of untreated control (90% infection), read-out: Observed activity (% infection); for inhibition at 4 µg/mL: 4 mg/l; for inhibition at 1 µg/mL: 1 mg/l. As for the experimental part:
(§1) The active compounds, separately or jointly, were prepared as a stock solution comprising 25 mg of active compound which was made up to 10 ml using a mixture of acetone and/or dimethyl sulfoxide and the emulsifier Uniperol® EL (wetting agent having an emulsifying and dispersing action based on ethoxylated alkylphenols) in a ratio by volume of solvent/emulsifier of 99:1. The mixture was then made up to 100 ml with water. This stock solution was diluted with the solvent/emulsifier/water mixture described to give the concentration of active compound stated below.
(§2) Alternatively, the active compounds epoxiconazole and pyraclostrobin were used as a commercial formulation and diluted with water to the stated active compound concentrations.
(§3) The visually determined percentages of infected leaf areas were converted into efficacies in % of the untreated control.
(§4) The efficacy (E) is calculated as follows using Abbot's formula: […]
(§5) α corresponds to the fungicidal infection of the treated plants in % and β corresponds to the fungicidal infection of the untreated (control) plants in %
(§6) An efficacy of 0 means that the infection level of the treated plants corresponds to that of the untreated control plants; an efficacy of 100 means that the treated plants were not infected.
The expected efficacies of active compound mixtures were determined using Colby's formula [R. S. Colby, “Calculating synergistic and antagonistic responses of herbicide combinations”, Weeds 15, 20-22 (1967)] and compared with the observed efficacies.
E=x+y−x·y/100 Colby's formula • E expected efficacy, expressed in % of the untreated control, when using the mixture of the active compounds A and B at the concentrations a and b; • x efficacy, expressed in % of the untreated control, when using the active compound A at the concentration a; • y efficacy, expressed in % of the untreated control, when using the active compound B at the concentration b;
Leaves of potted wheat seedlings of the cultivar “Kanzler” were sprayed to runoff point with an aqueous suspension having the concentration of active compound stated below. The next day the treated plants were inoculated with a spore suspension of brown rust of wheat (Puccinia recondite). The plants were then placed in a chamber at high atmospheric humidity (90 to 95%) at 20 to 22° C. for 24 hours. During this time, the spores germinated and the germ tubes penetrated into the leaf tissue. The next day, the test plants were returned to the greenhouse and cultivated at temperatures between 20 and 22° C. and 65 to 70% relative atmospheric humidity for a further 7 days. The extent of the rust fungus development on the leaves was then determined visually.

Series [2] deals with Alternaria solani. Put plainly: Activity against early blight on tomatoes caused by Alternaria solani. Format: in vivo. The following applies: tomato plants, sprayed 1 day before infection, rated after 5 days, efficacy in % of untreated control (90% infection), read-out: Observed activity (% infection); for inhibition at 63 µg/mL: 63 mg/l. As for the experimental part: as §1, §2, §3, §4, §5, §6
(§7) The expected efficacies of active compound mixtures were determined using Colby's formula [R. S. Colby, “Calculating synergistic and antagonistic responses of herbicide combinations”, Weeds 15, 20-22 (1967)] and compared with the observed efficacies. […]
Leaves of potted tomato plants were sprayed to runoff point with an aqueous suspension having the concentration of active compounds stated below. […] After 5 days, the disease on the untreated, but infected control plants had developed to such an extent that the infection could be determined visually in %.

Series [3] concerns Phakopsora pachyrhizi. Put plainly: Curative activity against soybean rust caused by Phakopsora pachyrhizi. Format: in vivo. The following applies: soybean seedlings cultivar Oxford, sprayed 2 days after inoculation, 4 mg/l, rated after 14 days, efficacy in % of untreated control (90% infection), read-out: Observed activity (% infection). As for the experimental part: as §1, §2, §3, §4, §7
Leaves of potted soybean seedlings of the cultivar “Oxford” were inoculated with a spore suspension of soybean rust (Phakopsora pachyrhizi). […] The extent of the rust fungus development on the leaves was then determined

Series [4] has as its system Botrytis cinerea. The experiment in a line: Activity against gray mold on bell pepper leaves caused by Botrytis cinerea, 1 day protective application. To be noted: bell pepper seedlings, sprayed 1 day before inoculation, 4 mg/l, rated after 5 days, efficacy in % of untreated control (100% infection), read-out: Observed activity (% infection). Format: in vivo. As for the experimental part:
as §1, §2, §3, §4, §5, §6, §7
Bell pepper seedlings of the cultivar “Neusiedler Ideal Elite” were, after 2-3 leaves were well developed, sprayed to runoff point with an aqueous suspension in the active compound concentration stated below. […] After 5 days, the extent of the fungal infection on the leaves could be determined visually in %.

For series [5], the system named is Erysiphe [syn. Blumeria] graminis forma specialis. tritici. Put plainly: Activity against mildew of wheat caused by Erysiphe [syn. Blumeria] graminis forma specialis. tritici. Type of series: in vivo. To be noted: wheat seedlings, sprayed 24 hours before dusting with spores, 1 mg/l, rated after 7 days; efficacy in % of untreated control (90% infection); read-out: Observed activity (% infection). As for the experimental part: The active compounds, separately or jointly, were prepared as a stock solution comprising 25 mg of active compound which was made up to 10 ml using a mixture of acetone and/or dimethyl sulfoxide and the emulsifier Uniperol® EL (wetting agent having an emulsifying and dispersing action based on ethoxylated alkylphenols) in a ratio by volume of solvent/emulsifier of 99:1. The mixture was then made up to 100 ml with water. This stock solution was diluted with the solvent/emulsifier/water mixture described to give the concentration of active compound stated below. […]
as §3, §4, §7
Leaves of potted wheat seedlings were sprayed to runoff point with an aqueous suspension having the active compound concentration stated below. […] After 7 days, the extent of the mildew development was determined visually in % infection of the entire leaf area.

As for `COc1ccc(C(=CC(=O)N2CCOCC2)c2ccc(Cl)cc2)cc1OC` [dimethomorph, 3-(4-chlorophenyl)-3-(3,4-dimethoxyphenyl)-1-morpholin-4-yl-propenone], the inhibition at 4 µg/mL in series [1] worked out at 5%. For the same compound, in series [2], the inhibition at 63 µg/mL turned out to be 0%.
As to `COc1cc(C)c(C(=O)c2c(OC)ccc(Br)c2C)c(OC)c1OC` [metrafenone, 3′-bromo-2,3,4,6′-tetramethoxy-2′,6-dimethylbenzophenone], the inhibition at 4 µg/mL in series [1] was 0%. Besides, in series [2], the inhibition at 63 µg/mL came to 0%.
Turning to `CC1CCN(c2c(-c3c(F)cc(F)cc3F)c(Cl)nc3ncnn23)CC1` [5-chloro-7-(4-methylpiperidin-1-yl)-6-(2,4,6-trifluorophenyl)-[1,2,4]triazolo[1,5-a]pyrimidine], the inhibition at 4 µg/mL in series [3] was 28%.
As to `Fc1ccc([C@]2(Cn3cncn3)O[C@H]2c2ccccc2Cl)cc1` (racemic) [epoxiconazole, (2RS,3SR)-1-[3-(2-chlorophenyl)-2,3-epoxy-2-(4-fluorophenyl)propyl]-1H-1,2,4-triazole], in series [4], the inhibition at 4 µg/mL is 10%.
In turn, `Cn1cc(C(=O)Nc2ccccc2-c2cc(Cl)cc(Cl)c2)c(C(F)(F)F)n1` [No. I.1, 1-methyl-3-trifluoromethyl-N-(ortho-(3,5-dichlorophenyl)phenyl)-pyrazole-4-carboxamide] gave a melting point of 101 to 105 °C. Besides, the inhibition at 1 µg/mL in series [1] stood at 52%. In series [4], the inhibition at 4 µg/mL was 0%.
For the compound `Cn1cc(C(=O)Nc2ccccc2-c2cc(Cl)cc(Cl)c2)c(C(F)F)n1` [No. I.4, N-(3′,5′-dichlorobiphenyl-2-yl)-1-methyl-3-difluoromethyl-1H-pyrazole-4-carboxamide], the inhibition at 1 µg/mL was 0% in series [5] and 56% in series [1]. Further, in series [2] (16 mg/l), the inhibition at 16 µg/mL is 44%.
Consider `COC(=O)N(OC)c1ccccc1COc1ccn(-c2ccc(Cl)cc2)n1` [pyraclostrobin, methyl N-{2-[1-(4-chlorophenyl)-1H-pyrazol-3-yloxymethyl]phenyl}(N-methoxy)carbamate], for which, in series [1], the inhibition at 1 µg/mL came to 0%. The inhibition at 4 µg/mL in series [4] was found to be 0%.
